Consider 1 compound from ChEMBL document CHEMBL4152208, “Synthesis and structure-activity relationships of quinolinone and quinoline-based P2X7 receptor antagonists and their anti-sphere formation activities in glioblastoma cells” (Eur J Med Chem, 2018).

pIC50: −log10 of the molar value. Calls of active or inactive are those of the source. No cut-off for these calls is given here.

One data set addresses T1, P2X purinoceptor 7 (Homo sapiens, UniProt Q99572).
T1 sequence (Q99572 whole entry): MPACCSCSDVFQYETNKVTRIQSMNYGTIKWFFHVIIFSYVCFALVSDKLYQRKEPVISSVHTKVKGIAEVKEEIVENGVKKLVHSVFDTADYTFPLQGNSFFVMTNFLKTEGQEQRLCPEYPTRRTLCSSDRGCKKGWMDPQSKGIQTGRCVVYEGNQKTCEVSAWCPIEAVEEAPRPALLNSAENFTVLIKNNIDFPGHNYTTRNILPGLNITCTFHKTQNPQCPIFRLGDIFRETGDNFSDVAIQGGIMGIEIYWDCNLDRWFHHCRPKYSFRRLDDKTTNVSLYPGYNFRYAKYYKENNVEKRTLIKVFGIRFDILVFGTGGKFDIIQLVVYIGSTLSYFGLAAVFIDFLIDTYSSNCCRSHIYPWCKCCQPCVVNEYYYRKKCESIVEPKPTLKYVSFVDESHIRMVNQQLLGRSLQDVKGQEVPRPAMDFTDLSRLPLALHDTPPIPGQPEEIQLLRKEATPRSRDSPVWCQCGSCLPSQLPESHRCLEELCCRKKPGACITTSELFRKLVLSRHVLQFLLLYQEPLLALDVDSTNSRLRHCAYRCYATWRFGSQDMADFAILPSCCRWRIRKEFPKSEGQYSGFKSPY
The experiment in a line: Antagonist activity at P2X7 in LPS/IFN gamma differentiated human THP-1 cells assessed as inhibition of BzATP-induced IL-1beta release preincubated for 30 mins followed by BzATP stimulation for 30 mins by ELISA. Format: cell-based.

For data set [1], the target named is T2, P2X purinoceptor 4 (Homo sapiens) (UniProt Q99571).
T2 sequence (whole entry): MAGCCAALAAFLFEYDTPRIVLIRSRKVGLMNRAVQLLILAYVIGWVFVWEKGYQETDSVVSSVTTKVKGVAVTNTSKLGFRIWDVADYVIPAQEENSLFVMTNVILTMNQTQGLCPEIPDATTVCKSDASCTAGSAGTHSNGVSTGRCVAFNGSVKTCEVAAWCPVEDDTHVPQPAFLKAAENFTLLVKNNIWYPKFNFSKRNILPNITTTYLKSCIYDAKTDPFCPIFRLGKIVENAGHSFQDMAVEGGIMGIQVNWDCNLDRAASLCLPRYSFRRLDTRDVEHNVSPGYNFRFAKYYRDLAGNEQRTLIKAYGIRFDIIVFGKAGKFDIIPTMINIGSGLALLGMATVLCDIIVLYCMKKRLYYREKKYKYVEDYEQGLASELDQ
Briefly: Antagonist activity at human P2X4 receptor expressed in 1321N1 cells assessed as inhibition of ATP-induced calcium flux at 1 uM measured for 30 secs at 0.4 secs intervals by Flou-4-AM dye based fluorescence assay relative to control. Format: cell-based. In general terms: Calcium flux is commonly read through the fluorescence of an indicator in the cells.

Data set [2] in a line: Antiproliferative activity against human TS15-88 cells after 24 to 72 hrs by MTS assay. The class given is functional, cell-based. (In general: Formazan colour is commonly taken as a measure of viable cells.)
The species named for another data set is Homo sapiens. The experiment in a line: Inhibition of neurosphere formation in human TS15-88 cells assessed as decrease in surface area of sphere at 50 uM after 5 days by microscopic analysis. The class given is functional, cell-based.
Data set [3] is described as follows: Increase in CD133 mRNA expression in human TS15-88 cells after 72 hrs by qRT-PCR analysis relative to control. Format: functional. For orientation: In qPCR the cycle at which signal appears reflects the starting amount.
Data set [4] in a line: Drug level in zebrafish blood at 10 mg/kg, po administered via gavage measured 0.5 hrs post compound administration by LC-MS/MS analysis. The class given is ADME, organism-based, Danio rerio. As to conditions: read-out: Drug uptake.
Data set [5] in a line: Ratio of drug level in zebrafish brain to blood at 10 mg/kg, po administered via gavage measured 0.5 hrs post compound administration by LC-MS/MS analysis. The class given is ADME, organism-based, Danio rerio.
A short description of data set [6]: Metabolic stability in human liver microsomes assessed as parent compound remaining at 1 uM up to 30 mins in presence of NADPH by LC-MS/MS analysis. The class given is ADME, microsome. The conditions noted are these: read-out: Stability.
Data set [7] is described as follows: Metabolic stability in rat liver microsomes assessed as parent compound remaining at 1 uM up to 30 mins in presence of NADPH by LC-MS/MS analysis. The class given is ADME, microsome. As to conditions: read-out: Stability.

On to `O=C(CC12CC3CC(CC(C3)C1)C2)Nc1cccc2nc(Cl)ccc12`, for which the pIC50 (in general, −log10 of the IC50, conventionally taken in molar units) at P2X purinoceptor 7 is 8.15; in [2], 4.40. In [1], the inhibition (commonly the share of the control response that was lost under treatment) amounted to 4%. Besides, in the data set listed under Homo sapiens, the inhibition result was “Active”. In [3], this compound yielded an Activity of 30%. The concentration at 0.5 h in [4] came to 0.235 µg/mL. The Kp (as a rule, tissue or fluid exposure divided by exposure in the circulation) at 0.5 h in data set [5] is 2.03. For the same compound, the remaining at 0.5 h, 1 µM in data set [6] came out at 0.04%; in data set [7], 0.06%.
